The test system of assay [1] is Pseudomonas aeruginosa (ATCC […]) and Escherichia coli (ATCC 10145) combined inoculum. Description: Synergy in the planktonic phase, 48 h biocide challenge with regrowth (turbidity) readout. It is filed as cell-based. The settings on record: P. aeruginosa/E. coli, 48 h challenge at 30° C., phosphate buffer pH 7.3. How it is done:
Pseudomonas aeruginosa (ATCC […]) and Escherichia coli (ATCC 10145) cultures were separately prepared from glycerol stocks. First they were streak plated and validated with a microscope. Single colonies were picked and used to inoculate 200 mL shake flasks that were grown statically overnight at 30° C. (30 grams/L Tryptic Soy Broth) to produce the initial inoculum. A deep-well 96 well challenge plate (2 mL maximum well volume) was prepared using 900 μL/well phosphate buffer at pH 7.3, (0.0027M potassium chloride, 0.137 M sodium chloride). Inoculation took place at the start of the experiments (with a 100 μL combined inoculum, adding to the 900 μL buffer to total 1 mL/well). The inoculum added between 1*10^8 and 1*10^9 total cells/mL based on OD600 measurement. […]
The inoculated assay block was challenged at 30° C. for 48 hours. […] This was done in triplicate for each point (the triplicate is already present in the biocide block viz. each point is truly determined in triplicate). […]
The recovery plates were subsequently read (checked for microbial growth) at 72 hours after addition of the culture, to recovery media. Ranking of biocidal efficacy was done by recording the development of turbidity within each well (determined by visual inspection). […] Ranking was done per average value of three data points determined per experiment. (Recorded in log regrowth). […]

Assay [2] has as its system Thermus thermophilus (DSM: 579). Description: Synergy in the planktonic phase, 48 h biocide challenge at 60° C. with dilution-series regrowth readout. Type of assay: cell-based. How it is done: Experiments using Thermus thermophdus (DSM: 579) as a test organism were also performed. In these experiments, the total concentration of biocides was 300 ppm for the combined total actives, the temperature at which the experiments were performed was 60° C., the media to grow Thermus thermophdus was DSMZ DSM 74-Media at pH 8.0. (Yeast extract (BD Difco) 4.0 g, Proteose peptone Nr. 3 (BD Difco) 8.0 g, NaCl 2.0 g, distilled water added to 1 L). The challenging with biocides against Thermus thermophilus was done in a standard ocean matrix with a similar salinity of 2% (similar to the media where they are cultured in). Once again, each experiment was done in triplicate.
The inoculated assay block was challenged at 60° C. for 48 hours. The inoculum prepared added between to 1*10^8 to 1*10^9 total cells/mL (determined by MPN analysis). After 48 hours of challenge with biocide, 20 μL aliquots of each treatment (well) were added to one of several 96 well plates with DSM 74-media. These 96 well plates were filled with ‘recovery’ media (DSM 74-Media). One of these plates was prepared for each column of the assay block. 180 μL recovery media was added to each well of a 96 well plate, except for column 1 of the recovery plate. This column was filled with 180 μL of one column of the assay block. The last three columns on the recovery plate were not pipetted. These columns represented the no template control for verifying proper plate set up and data reliability. The assay block sample was then diluted in steps of 10 fold by transferring 20 μL from e.g. columns 1 to column 2 and from column 2 to column 3 (until column 9) by applying a multichannel pipet in each recovery plate. […]
The recovery plates were allowed to regrow for 4-6 days and subsequently read (checked for microbial growth). This was done in duplicate for each point (the duplicate is already present in the biocide block viz. each point is truly determined in duplicate). […] Turbidity was checked in log scale reading the recovery plates. Turbidity was recorded via presence/absence and gave the log kill range (from the made dilution series). […]

For `O=CC=O` [Glyoxal, glyoxal], the “Glyoxal stand alone 48 h pass” value in assay [1] (glyoxal alone) is given as 875 ppm; in assay [2] (T. thermophilus, glyoxal alone, 48 h challenge at 60° C., ocean matrix 2% salinity), 59 ppm. Besides, the “Sensitivity of Thermus thermophilus to Glyoxal” value in assay [2] (vs. Pseudomonas aeruginosa and E. coli) is “*Thermus thermophilus is more sensitive to Glyoxal vs. Pseudomonas aeruginosa and E. coli”.

As to “tetrakis(hydroxymethyl)phosphonium sulfate [THPS]”, the “THPS stand alone 48 h pass” value is reported as 130 ppm in assay [1] (THPS alone) and 300 ppm in assay [2] (T. thermophilus, THPS alone, 48 h challenge at 60° C., ocean matrix 2% salinity).

For the origin of these results see US20200390102A1, “SYNERGISTIC ANTIMICROBIAL COMPOSITION” (DDP SPECIALTY ELECTRONIC MATERIALS US, INC., priority 2017, published 2020).
